Experimental data reported in patent US20250134889A1, “TARGETING IRE1 KINASE AND FMRP FOR PROPHYLAXIS, MANAGEMENT AND TREATMENT OF ATHEROSCLEROSIS” (CEDARS-SINAI MEDICAL CENTER, priority 2022, published 2025).

How the values were obtained:
[1] = target: T1, human IRE1-kinase/RNase domains (amino acids 468-977) (Homo sapiens, UniProt O75460); assay: Kinase reaction with purified recombinant IRE1 and FMRP; assay type: biochemical; conditions: purified proteins, ATP-γ-S
T1 construct: recombinant human IRE1-kinase/RNase domains (amino acids 468-977); purchased Biotech (so in the source) E31-11G
T1 sequence (O75460 468-977): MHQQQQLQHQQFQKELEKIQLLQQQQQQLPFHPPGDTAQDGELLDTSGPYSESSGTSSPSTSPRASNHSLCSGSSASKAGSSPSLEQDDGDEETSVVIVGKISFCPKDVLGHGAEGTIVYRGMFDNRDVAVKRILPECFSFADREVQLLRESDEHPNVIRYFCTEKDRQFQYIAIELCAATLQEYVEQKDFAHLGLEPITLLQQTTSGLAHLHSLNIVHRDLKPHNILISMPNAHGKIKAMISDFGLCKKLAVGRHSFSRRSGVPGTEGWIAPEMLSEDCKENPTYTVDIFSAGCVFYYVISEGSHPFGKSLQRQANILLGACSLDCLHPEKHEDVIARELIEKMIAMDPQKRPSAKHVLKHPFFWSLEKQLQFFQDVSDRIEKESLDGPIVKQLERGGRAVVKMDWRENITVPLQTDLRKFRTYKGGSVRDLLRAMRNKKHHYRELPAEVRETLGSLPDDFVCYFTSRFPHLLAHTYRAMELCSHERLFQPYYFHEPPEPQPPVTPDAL

[2] = system: BMDM; assay: Cholesterol efflux assay; assay type: cell-based, mouse; conditions: AMG-18 5 μM 1 hour pre-treatment; APOA1 25 μg/ml or HDL 50 μg/ml acceptors, 6 hours
Procedure: FIGS. 2A-2M depict that FMRP deficiency enhances RCT while reducing foam cell formation in vivo. (Data are mean±SEM. Unpaired t-test with Welch's correction. * P≤0.05, ** P≤0.01, *** P≤0.001.) • 2A. Fmr1^+/+ and Fmr1^−/− mice were injected with AAV_PCSK9 and fed with 16 weeks of WD. Residential PM were stained with Oil Red O (ORO) and imaged (n=7; Scale bar=50 μm). • 2B. Apoe-/mice were fed with WD (12 weeks) and injected with vehicle (DMSO) or AMG-18 (30 mg/kg/day) in the last 4 weeks of WD. Residential PM were stained with ORO and imaged (n=5; Scale bar=50 μm). • 2C-2E. […] Macrophages were pre-loaded with fluorescently labeled cholesterol (16 hours) followed by incubation in efflux medium including APOA1 (25 μg/ml) or HDL (50 μg/ml) as acceptors for 6 hours. % Efflux was calculated as cholesterol signal in medium/cholesterol signal in medium and cell: Cholesterol efflux in (2F) Fmr1+/+ and Fmr1^−/− BMDM (n=4) and in (2G) BMDM that were pre-treated either with DMSO or AMG-18 (5 μM; 1 hour) (n=4). • 2H-2K. […] Protein lysates from macrophages used in FIG. 2C were analyzed by western blotting using specific antibodies for FMRP and β-Actin. • 2M. […]

[3] = system: PM; assay: In vivo efferocytosis; design: species or system mouse; conditions: C57BL/6, AMG-18 30 mg/kg 8 hours, CFSE-labeled ACs i.p. 1.5 hours
Source text: FIGS. 3A-3G depict that FMRP-deficiency increases efferocytosis in vivo. (For all images scale bar=50 μm; Red: Macrophages, Green: AC/AC-1, Violet: AC-2. Data are mean±SEM. Unpaired t-test with Welch's correction. * P≤0.05, ** P≤0.01, *** P≤0.001.) • 3A-3E. In vitro and in vivo efferocytosis experiments, where percentage of macrophages F4/80^+ (red) that ingested apoptotic cells (AC) labeled with carboxyfluorescein succinimidyl ester (CFSE)^+ (green) were reported as % efferocytosis. • 3A. BMDMs were transfected with Fmr1- or control-siRNA and incubated CFSE-labeled AC for the indicated hours (n=4). • 3B. Fmr1^+/+ and Fmr1^−/− BMDMs were treated with PA (500 μM) for 6 hours and then incubated with CFSE-labeled ACs for 4 hours (n=4). • 3C. Fmr1^+/+ and Fmr1^−/− mice were fed WD (16 weeks) and injected intraperitoneally with CFSE-labeled AC (1.5 hours), followed by PM elicitation (n=4-5). • 3D. BMDM were pre-treated either with vehicle (DMSO) or AMG-18 (5 μM) for 1 hour then incubated with CFSE-labeled ACs for 4 hours (n=4). • 3E. […] In vitro continuous efferocytosis experiments, where macrophages were stained for F4/80^+ (red), AC were labeled with CFSE (AC-1; green) or Violet (AC2; violet). % continuous efferocytosis was determined by the ratio of F4/80^+, CFSE^+ and Violet^+ (triple positive) cells to total F4/80^+/+ and CFSE^+ (double positive) cells. • 3F. […]

## Cc1ccc2c(NS(=O)(=O)c3ccccc3Cl)cccc2c1Oc1ncccc1-c1ccnc(N[C@H]2CCCNC2)n1 [AMG-18]
[1]
  FMRP phosphorylation in kinase reaction: AMG-18-sensitive
  IRE1 phosphorylation in kinase reaction: AMG-18-sensitive
[2]
  cholesterol efflux: enhanced
[3]
  efferocytosis of ACs by PM in vivo: induced
